Measurements: patent publication US8247460B2, “Method of treatment for muscular dystrophy” (priority 2006, dated 2012)
Like-named read-outs stand apart in the source and are kept apart here.

What was measured:
[1] = system: alpha-SG-null C57BL/6 mouse; assay: Histology: number of inflammatory infiltrates in muscle sections; format: in vivo; conditions: alpha-SG-null mice, drugs daily in the diet, 30 days of treatment, n = 4
Experimental: FIG. 3: alpha-SG-null C57BL/6 mice were treated for 30 days with the indicated drugs, or combinations of drugs incorporated into the diet as described in the Methods. Tibialis anterior muscles were dissected and frozen in liquid nitrogen-cooled isopentane. The number of inflammatory infiltrates was measured on Azan-Mallory-stained serial muscle sections.
(§1) The alpha-SG-null C57BL/6 mouse, one of the most severe models of muscular dystrophy was used. In some experiments wild type (wt) C57BL/6 mouse were used as internal further control.
(§2) In the in vivo experiments the drugs were administered daily in the diet to three months old animals for 30 days. The dose of aspirin was 80 mg/kg, the dose of ISMN was 35 mg/kg and that of ISDN was 10 mg/kg, while the dose of ibuprofen was 15 mg/kg. Prednisolone was used as reference drug at the dose of 2 mg/kg. When combinations of drugs were used, the drugs were both incorporated in the same diet. Control animals received the same diet without any drug incorporation.
(§3) Diaphragm and tibialis anterior of untreated and drug-treated mice were isolated and included in Killik® frozen section medium, quickly frozen and cut into 8-μm thick sections with the muscle fibres oriented transversely using a cryostat. Sections were stained with either Hematoxylin&Eosin or Azan Mallory, to evaluate the number of inflammatory infiltrates and necrotic fibres ([…] sections per tissue), respectively.

[2] = system: alpha-SG-null C57BL/6 mouse; assay: Histology: number of necrotic fibres in muscle sections; format: in vivo; conditions: alpha-SG-null mice, drugs daily in the diet, 30 days of treatment, n = 4
Experimental: FIG. 4: alpha-SG-null C57BL/6 mice were treated for 30 days with the indicated drugs, or combinations of drugs incorporated into the diet as described in the Methods. Diaphragm muscles were dissected, frozen in liquid nitrogen-cooled isopentane and stained with hematoxilin & eosin according to standard procedures.
as §1, §2, §3

[3] = system: alpha-SG-null C57BL/6 mouse; format: in vivo
Experimental: FIG. 1: alpha-sarcoglycan (SG)-null C57BL/6 mice were treated for 30 days with the indicated drugs, or combinations of drugs incorporated into the diet as described in the Methods. Serum creatin kinase (CK) concentrations were measured from mouse blood samples obtained by tail vein withdrawal using the indirect colorimetric assay (Roche Diagnostics), following standard procedures.
as §1, §2
Quantitative determination of creatine kinase activity in serum of control and drug treated-animals was measured using creatine kinase reagent (Randox, CK110), according to the manufacturer's instructions. Blood was collected from tail vein and serum obtained after centrifugation at 13000 rpm for 10 minutes was stored at −80° C. before measurements.

[4] = system: alpha-SG-null C57BL/6 mouse; assay: Free wheel running (voluntary running wheel activity); format: in vivo; conditions: alpha-SG-null mice, drugs daily in the diet, 30 days of treatment, n = 4
Experimental: FIG. 2: alpha-SG-null C57BL/6 mice were treated for 30 days with the indicated drugs, or combinations of drugs incorporated into the diet as described in the Methods. Locomotor performance was measured through the Running Wheel Activity, to this end mice were housed individually in cages equipped with a Trixie running wheel. Each wheel revolution was registered through a magnetic switch, which was connected to a counter. The number of revolutions was recorded daily for 6 days. […] The results of 9 experiments ±S.E.M of Running Wheel Activity measured in wild type (wt) C57BL/6 mice are also reported.
as §1, §2
Voluntary wheel running was used as the exercise paradigm to avoid any physiological changes that may occur due to the stress of forced treadmill running. Mice were housed individually in cages equipped with a Trixie running wheel. Each wheel revolution was registered through a magnetic switch, which was connected to a counter. The number of revolutions was recorded daily for 6 days.

[5] = system: Satellite cells from alpha-SG-null C57BL/6 mice; assay: Fusion index of differentiating satellite cells; format: cell-based, mouse; conditions: for Fusion index: n = 4; for Fusion index compared to control cells, in words: satellite cells, 48 and 72 h
Experimental: FIG. 6: Satellite cells from alpha-SG-null C57BL/6 mice were isolated from 3-5 days old mice and induced to differentiate in the presence of the indicated drugs as described in the methods. Fusion index was determined at 48 and 72 h as the number of nuclei in sarcomeric myosin-expressing cells with more than 2 nuclei vs the total number of nuclei.
In the in vitro experiments, the drugs were applied to satellite cells at the concentration of 100 μM for ISMN, 50 μM for ISDN, 10 μM for ibuprofen, 50 μM for aspirin and 30 μM for prednisolone. When combinations of drugs were used, the drugs were administered at the same time.
Satellite cells were isolated from 3-5 days old mice as described previously with some modifications. In particular, after 3 days from isolation, proliferating myoblasts were harvested, counted, and plated on tissue culture plastic dishes coated with 1 mg/ml type I collagen (SIGMA, C9791). […] Preparations showing less than 90% myogenic cells were discarded. […] Growth medium contained IMDM medium supplemented with 20% Fetal Bovine Serum, 3% Chick Embryo Extract, 100 U/ml Penicillin, 100 μg/ml Streptomycin, 50 μg/ml Gentamycin. Differentiation medium contained IMDM medium supplemented with 2% Horse Serum, 100 U/ml Penicillin, 100 μg/ml Streptomycin. Fusion index was determined as the number of nuclei in sarcomeric myosin-expressing cells with more than 2 nuclei vs the total number of nuclei.
Satellite cells isolated from newborn alpha-SG-null C57BL/6 mice and plated at low density (6×10^3 cells/cm^2) were maintained for 48 h in growth medium, and then switched to the differentiating medium in the presence or absence of ISMN, ISDN, aspirin, ibuprofen, ISMN plus aspirin or ISDN plus ibuprofen.

[6] = system: alpha-SG-null C57BL/6 mouse; assay: In vivo experiments: histological, functional and biochemical alterations overall; conditions: alpha-SG-null mice, 30 days in the diet, vs control
Experimental: as §1, §2
The effects of the different drugs and their combination on the number of inflammatory infiltrates, the number of necrotic fibers per section, creatine kinase activity and free wheel distance ran are shown in Table I.

[7] = serum, alpha-SG-null mice, drugs daily in the diet, 30 days of treatment, n = 4
[8] = 48 hours of treatment in differentiating medium
[9] = 72 hours of treatment in differentiating medium

| Compound | N° of inflammatory infiltrates/sections [1] | N° of necrotic fibres/section [2] | CK level [3, 7] | Free wheel test [4] | Fusion index [5, 8] | Fusion index [5, 9] | Effect on the parameters measured (histological, functional and biochemical alterations), in words [6] | Fusion index compared to control cells, in words [5] | CK level ([3]; mouse, in vivo) |
| --- | --- | --- | --- | --- | --- | --- | --- | --- | --- |
| CC(=O)Oc1ccccc1C(=O)O [Aspirin] | 122.2 ± 17.1° | 249.0 ± 32.1 | 841 ± 33 U/l | 0.15 ± 0.02 km/24 h | 20 ± 1.9% | 43 ± 1.7% | did not have significant effects |  |  |
| O=[N+]([O-])O[C@H]1CO[C@H]2[C@@H]1OC[C@H]2O[N+](=O)[O-] [ISDN, isosorbide dinitrate] |  |  |  |  |  |  | did not have significant effects | effective on their own |  |
| O=[N+]([O-])O[C@@H]1CO[C@H]2[C@@H]1OC[C@@H]2O [ISMN, isosorbide-mononitrate] | 190.2 ± 33.2 | 238.0 ± 27.2 |  | 0.18 ± 0.03 km/24 h | 41 ± 2.2 % | 76 ± 3.3 % | did not have significant effects | effective on their own | 787 ± 33 U/l |
| CC(C)Cc1ccc(C(C)C(=O)O)cc1 (stereo not drawn) [Ibuprofen] | 116.1 ± 11.1° | 269.0 ± 34.3 | 851 ± 41 U/l | 0.12 ± 0.01 km/24 h | 21 ± 1.2% | 42 ± 2.3% | did not have significant effects |  |  |
| C[C@]12C=CC(=O)C=C1CC[C@@H]1[C@@H]2[C@@H](O)C[C@@]2(C)[C@H]1CC[C@]2(O)C(=O)CO [Prednisolone] | 103.4 ± 12.0 | 217.3 ± 37.3 | 757.6 ± 37.5 U/l | 0.38 ± 0.1 km/24 h | 18 ± 0.9% | 41 ± 2.0% |  |  |  |
